This is an account of results in paper PMC10814725, “In Vitro Anti-Inflammatory Study of Limonoids Isolated from Chisocheton Plants” (Current Issues in Molecular Biology, 2024).

The test system of one data set is TNF-α. Put plainly: ELISA of TNF-α production in LPS-stimulated THP-1 cells. It counts as cell-based, human. As to conditions: for IC50: LPS-stimulated (10 ng/mL) THP-1 cells, 1, 5, 10, 20 µM, 18 h, read-out: TNF-α IC50. A general note: An ELISA detects its analyte on a solid surface through an enzyme-linked reagent.
Another data set deals with IL-6. Put plainly: ELISA of IL-6 production in LPS-stimulated THP-1 cells. The data set is classed as cell-based, human. On the procedure: (§1) The logarithmic growth phase of THP-1 cells was achieved by seeding in 96-well plates at a density of 5 × 10^4 cells/well and differentiated for 24 h in the presence of PMA (0.5 μM solution in medium). After 24 h of incubation, the culture medium was removed from the 96-well plate and the cells were washed with PBS. […] The cells were pretreated with 17 limonoids at the corresponding concentration for 1 h, followed by the addition of LPS (10 ng/mL) and then incubation at 37 °C for 18 h. Finally, 50 μL of each culture supernatant solution was taken to determine the concentrations of IL-6, MCP-1, and IL-1β using the corresponding commercially available human ELISA kits following the manufacturer’s instructions. The analyte concentration in the supernatant was measured in pg/mL, and the inhibition level was expressed as a fold change compared to the LPS (−) control group. To determine the IC50 value, the dose-response data were normalized to the LPS-stimulated-only group, and the percentage of inhibition was calculated using the following formula: % Inhibition=(Absorbance of LPS+ control−Absorbance of compound treatment with LPS)/(Absorbance of LPS+ control−Absorbance of LPS− control)×100
(§2) Furthermore, the % inhibition data were interpolated into linear equations to determine the IC50 values.

For the next data set, the system named is IL-1β. Put plainly: ELISA of IL-1β production in LPS-stimulated THP-1 cells. It counts as cell-based, human. As to conditions: 10 µM, compared to LPS (+)-stimulated group. How it is done:
(§3) The logarithmic growth phase of THP-1 cells was achieved by seeding in 96-well plates at a density of 5 × 10^4 cells/well and differentiated for 24 h in the presence of PMA (0.5 μM solution in medium). After 24 h of incubation, the culture medium was removed from the 96-well plate and the cells were washed with PBS. Fresh RPMI-1640 medium supplemented with 0.1% FBS and 1% Penicillin–Streptomycin was added to each well and incubated at 37 °C overnight. The cells were pretreated with 17 limonoids at the corresponding concentration for 1 h, followed by the addition of LPS (10 ng/mL) and then incubation at 37 °C for 18 h. Finally, 50 μL of each culture supernatant solution was taken to determine the concentrations of IL-6, MCP-1, and IL-1β using the corresponding commercially available human ELISA kits following the manufacturer’s instructions. The analyte concentration in the supernatant was measured in pg/mL, and the inhibition level was expressed as a fold change compared to the LPS (−) control group. To determine the IC50 value, the dose-response data were normalized to the LPS-stimulated-only group, and the percentage of inhibition was calculated using the following formula: % Inhibition=(Absorbance of LPS+ control−Absorbance of compound treatment with LPS)/(Absorbance of LPS+ control−Absorbance of LPS− control)×100
as §2

The next data set has as its system MCP-1. Put plainly: ELISA of MCP-1 production in LPS-stimulated THP-1 cells. To be noted: 10 µM, compared to LPS (+)-stimulated group, THP-1 cells. It counts as cell-based, human. On the procedure:
as §1, §2

The nature of data set [1]: Cell viability by CCK-8, HEK-Blue hTLR4 cells. The data set is classed as cell-based. To be noted: human. How it is done: (§4) The viability of HEK-Blue^TM hTLR4, […], and THP-1 cells was evaluated using the Dojindo Cell Counting Kit-8 (CCK-8) according to the manufacturer’s instructions. The viability of HEK-Blue^TM hTLR4 and THP-1 cells was assessed under identical conditions to the corresponding assay treatments. HEK-Blue^TM hTLR4 cells (2 × 10^4 cells/well) were seeded in 96-well plates and serum-starved for 24 h at 37 °C in a 5% CO2 atmosphere. After incubation, the culture medium was aspirated, and the cells were washed with saline. High-glucose D-MEM supplemented with 0.1% FBS and 1% penicillin–streptomycin was added and pretreated with or without the 17 limonoids at a concentration of 20 µM for 1 h, followed by LPS addition at a concentration of 10 ng/mL. After 18 h of incubation, a 10% (v/v) CCK-8 solution was added to each well and incubated at 37 °C for 1 h, and cell viability was calculated.

Data set [2] is described as follows: Cell viability by CCK-8, THP-1 cells. It counts as cell-based. To be noted: human, PMA-differentiated THP-1 cells. How it is done: as §4
The THP-1 cells at 5 × 10^4 cells/well were differentiated for 24 h in the presence of PMA (0.5 μM solution in medium). After 24 h of incubation, the culture medium was removed from the 96-well plate and the cells were washed with PBS. Fresh RPMI-1640 medium supplemented with 0.1% FBS and 1% penicillin–streptomycin was added to each well and incubated at 37 °C for overnight. The cells were pretreated with 17 limonoids at the corresponding concentration for 1 h followed by the addition of LPS (10 ng/mL) and incubated at 37 °C for 18 h. Furthermore, CCK-8 solution was added to each well with a final concentration was 10% (v/v) and incubated at 37 °C. After 1 h, the absorbance of each well was measured at […] by using a microplate reader (BioTek Cytation 5 Cell Imaging Multimode Reader). Cell viability was calculated using the following formula: % Cell viability=(Absorbance of sample−Absorbance of Background)/(Absorbance of control−Absorbance of Background)×100 where the absorbance of the sample is the absorbance of cells treated by the compound with or without LPS, the absorbance of the control is the absorbance of LPS (−)-treated cells, and the background absorbance is the absorbance of a well containing only the medium. The results were expressed as 100% cell viability.

The test system of the next data set is phosphorylated-p38 MAPK. Put plainly: Western blotting of phosphorylated-p38 MAPK in LPS-stimulated THP-1 cells. It counts as cell-based, human. As to conditions: 10 µM, LPS 10 ng/mL, 18 h, compared to LPS (+) group. How it is done:
THP-1 cells were seeded at a density of 1 × 10^6 cells/well in 24-well plates. The cells were then pretreated with a concentration of 10 µM of compounds 3, 5, 9, or 15 for 1 h. Subsequently, LPS (10 ng/mL) was added to the cells, which were incubated for 18 h. The protein concentrations were determined using a bicinchoninic acid (BCA) assay kit.
For Western blot analysis, proteins were separated by SDS-PAGE and transferred onto a polyvinylidene fluoride (PVDF) membrane. The membranes were blocked with 2.5% BSA in Tris-buffered saline-Tween (TBST) for 1 h at room temperature. After three washes with TBST, the membranes were incubated with a diluted primary antibody solution (anti-phosphorylated-p38 MAPK or anti-p38 MAPK) at a 1:1000 dilution for 1 h at room temperature. After three washes with TBS-T, the membranes were incubated with a secondary antibody conjugated to horseradish peroxidase (HRP; 1:4000 dilution) for 30 min at room temperature and subsequently detected by chemiluminescence. Finally, the bands were visualized and quantified using an ImageQuant 800 GxP system (Cytiva, MA, USA). The results were expressed as ratios relative to the reference protein β-actin.
On the technique in general: In western blotting, separated proteins are transferred to a membrane and probed.

A further data set can be described thus: in vitro. It counts as cell-based. To be noted: mouse. On the procedure: as §4
The subject of data set [3] is TNF-α, IL-6, IL-1β, and MCP-1. Put plainly: ELISA of pro-inflammatory markers overall (TNF-α, IL-6, IL-1β, MCP-1) in LPS-stimulated THP-1 cells. The data set is classed as cell-based. To be noted: Homo sapiens, read-out: Overall IC50 values for the evaluated pro-inflammatory markers. How it is done:
as §3, §2

Data set [4] relates to TLR4-dependent NF-kB activation in HEK-Blue hTLR4 cells. Put plainly: SEAP reporter gene assay, antagonist effect on LPS-stimulated TLR4-dependent NF-κB activation. It counts as cell-based, human. To be noted: 20 µM, LPS 10 ng/mL, 18 h, vs. LPS stimulated-only group. On the procedure:
(§5) The SEAP Reporter Gene Assay was conducted as previously described. HEK-Blue^TM hTLR4 cells (2 × 10^4 cells/well) were seeded in 96-well plates and were serum-starved for 24 h at 37 °C in a 5% carbon dioxide atmosphere. After incubation, the culture medium was aspirated, and the cells were washed with saline. High-glucose D-MEM supplemented with 0.1% FBS and 1% penicillin-streptomycin was added and treated with or without the 17 limonoids at a concentration of 20 µM for 1 h, followed by LPS addition at a concentration of 10 ng/mL for the LPS-stimulated group. After incubation at 37 °C for 18 h, the supernatants were collected and PNPP in PBS solution (0.8 mM, 100 μL) was added, followed by 4 h of shading at 25 °C. The optical density (OD) of the samples was measured at 405 nm using a microplate reader (BioTek Cytation 5 Cell Imaging Multimode Reader, Agilent Technologies, Santa Clara, CA, USA).

Data set [5] concerns NF-κB activation in HEK-Blue hTLR4 cells. Put plainly: SEAP reporter gene assay, agonist effect on NF-κB activation (without LPS). It counts as cell-based, human. To be noted: 20 µM, compared to LPS (−)-treated cells. How it is done: as §5
(Reporter assays use an easily measured gene product as a stand-in for the process of interest.)

The mark [6] stands for this setting: 10 µM, compared to LPS (+)-stimulated group, THP-1 cells.
The mark [7] stands for this setting: Viability Cell (%) HEK-Blue hTLR4 LPS-Induced (10 ng/mL).
[8] abbreviates: Viability Cell (%) HEK-Blue hTLR4 Without LPS.
[9] abbreviates: LPS 10 ng/mL, read-out: Viability Cell (%) THP-1 LPS-Induced (10 ng/mL).
[10] abbreviates: without LPS, read-out: Viability Cell (%) THP-1 Without LPS.

Molecules are shown by their SMILES. Like-named read-outs stand apart in the source and are kept apart here.

As for `CC(=O)O[C@@H]1[C@H](O)[C@H]2C(C)(C)C(=O)C=C[C@]2(C)[C@H]2CC[C@]3(C)C(=CC[C@H]3c3ccoc3)[C@]12C` [Compound 9, nimonol], in the data set with TNF-α (setting [6]), the “Effect on TNF-α level” value is recorded as “significantly reduced”. For the same molecule, the IC50 with TNF-α (Homo sapiens, THP-1, 18 h) is less than 3000 nM; in the data set with TNF-α, 2150 nM; in data set [3] it was less than 20 µM. The “TNF-α SI (selectivity index, CC50/IC50)” value in the data set with TNF-α (THP-1 CC50 / TNF-α IC50) came to 49.92. In addition, the “Effect on IL-6 level” value with IL-6 (setting [6]) is recorded as “significantly reduced”. Further, in the data set with IL-6 (THP-1 CC50 / IL-6 IC50), the “IL-6 SI (selectivity index, CC50/IC50)” value turned out to be 94.98. For the same molecule, the “Effect on IL-1β level” value in the data set with IL-1β is “significantly reduced”. Moreover, in the data set on MCP-1, the “Effect on MCP-1 level” value is reported as “significantly reduced”. Also, the viability at 18 h, 20 µM is 74.8 ± 6.22% in data set [1] (setting [7]) and greater than 99.9% in data set [1] (setting [8]). In addition, the viability at 18 h, 10 µM is 83.9 ± 7.6% in [2] (setting [9]) and greater than 99.9% in [2] (setting [10]). Besides, in data set [2] (concentration causing 50% cytotoxicity against THP-1 cells), the CC50 at 18 h came to 107 µM. Moreover, in the data set on phosphorylated-p38 MAPK, the “Effect on p-p38 MAPK levels” value is “significantly suppressed”. The viability at 5 µM in “in vitro” stood at 93.8 ± 1.86%. This molecule yielded a viability at 10 µM in “in vitro” of 89.9 ± 2.44%. Also, the viability at 20 µM in the data set “in vitro” was 79.4 ± 10.2%.

With `CC1(C)C(=O)C=CC2(C)C1=C(O)C(=O)C1(C)C2(O)C(O)CC2(C)C(c3ccoc3)CC3OC321` (stereo not shown) [Compound 17, pentandricine G], the “Inhibition of SEAP release (NF-κB activity inhibition)” value in data set [4] is “significantly inhibited SEAP release”. Moreover, in data set [5], the “Agonist effect on NF-κB activation” value was “weak agonist effect”. The viability at 18 h, 20 µM in [1] (setting [7]) is 64.2 ± 9.05%; in data set [1] (setting [8]), greater than 99.9%. In addition, the viability at 18 h, 10 µM in data set [2] (setting [9]) was greater than 99.9%; in data set [2] (setting [10]), 87.3 ± 4.18%. In the data set “in vitro”, the viability at 5 µM is 77.5 ± 10.2%. Also, in “in vitro”, the viability at 10 µM amounted to 72.2 ± 4.68%. The same molecule displayed a viability at 20 µM in the data set “in vitro” of 73.1 ± 2.02%. Besides, in [3], the IC50 was less than 20 µM.

One may read the IC50 as the concentration that gives 50% inhibition. The term CC50 denotes the concentration that lowers cell viability or growth by half. The low end stands for greater toxicity to the cells, the high end for lower toxicity to the cells.
